Counter-ions that a name gives are not always drawn.
Key:
[1] = tested on: HMLE-ZEB1 cells (CDH1prom-luc reporter, Dox-induced ZEB1 driven EMT); test: Dual-Glo luciferase CDH1prom-luc reporter screen of LOPAC and bioactive lipid library; assay type: cell-based; conditions: ratio Firefly (CDH1prom-luc) / Renilla luciferase, normalized to DMSO = 1; primary screen
Excerpt: FIG. 1: Design of a cell-based reporter assay. Doxycycline (Dox)-induced ZEB1 driven EMT (HMLE-ZEB1 cells) was used to conduct high-throughput screen for identifying inhibitors of epithelial-mesenchymal transition.
A) Dual-Glo luciferase assay to test gene promoters that include CD44, CD166, CDH1 and SERPINE1 in Dox-induced HMLE-ZEB1 cells. Data are represented as ratio of mean Firefly luciferase (FF) and Renilla luciferase (Ren) readings; n=3. B) Dual-glo Luciferase assay of HMLE-ZEB1 screened with LOPAC library. Data are represented as ratio of mean Firefly luciferase (FF) and Renilla luciferase (Ren) readings, n=3. Hits are circled in red. C) Average Z-score of Dual-glo Luciferase assay in HMLE-ZEB1 cells screened with LOPAC library; n=4. D) Validation of screening hits by Dual-glo Luciferase assay in HMLE-ZEB1 screened with LOPAC library by primary and secondary screens. E) Hits from secondary screen validated at different concentrations 5, 1.66, 0.55, 0.18 and 0.06 μM. N=3 F) Validation of the screening hits by CDH1 gene expression. n=3. G) Top, Phase-contrast images of morphological changes of HMLE-ZEB1 cells in DMSO and Dox-treated cells in presence or absence of Kenpaullone (0.25 μM) (DMSO, Dox, Ken, and Dox+Ken). Scale represents 100 μm. Second, Immunofluorescence staining of epithelial marker E-Cadherin (ECAD) and mesenchymal marker Vimentin in DMSO, Dox, Ken and Dox+Ken treated cells. Scale represents 50 μm. Bottom, Fluorescence activated sorting analysis (FACS) of CD44 and CD24 staining in Dox induced HMLE-ZEB1 cells in presence or absence of Ken. Numbers within graph represent percentages of gated cells indicating CD44high CD24low (above) and CD44lowCD24high cells (below). H) TdTomato-labelled MCF7-SLUG+SOX9 cells that were injected orthotopically into the mammary fat pads and induced by Doxycycline (+Dox) to express SLUG and SOX9 to promote metastasis in shControl and shGSK3β cells. Top, Representative fluorescence images of whole-mount of lung and second, histology of lung sections. Scale bar represents 100 μm. Third, Tumors were stained for GSK3β and counterstained with hematoxylin. Scale bar represents 100 μm. Fourth, primary tumors were also stained for E-cadherin, Fibronectin and DAPI. Scale bar represents 50 μm. n=3-5 mice for each group. I) Total number of metastasis as counted from whole mount of lung in mice implanted with in shControl and shGSK3β cells. n=3-5 for each group. **P<0.01 and ***P<0.001 as determined by as determined by one-way ANOVA with Dunnet's multiple comparison test. All data are presented as mean+/−SEM. *P<0.05, **P<0.01, ***P<0.001 and ****P<0.0001, not significant (ns) as determined by unpaired two-tailed t-test unless otherwise stated.
FIG. 3: Identification of inhibitors of epithelial-mesenchymal transition from high-throughput screening of bioactive lipid library with the screening platform. A) Dual-glo Luciferase assay of HMLE-ZEB1 screened with bioactive lipid library. Data are represented as ratio of mean Firefly luciferase (FF) and Renilla luciferase (Ren) readings, n=3. Hits are circled in red. B) Average Z-score of Dual-glo Luciferase assay in HMLE-ZEB1 cells screened with bioactive lipid library; n=4. Compounds shown in red indicates top hits. C) Protein expression of EMT markers E-cadherin, Fibronectin Vimentin and Snail in DMSO and 4-OHT induced cells treated with and without Cay10603 (10 nM) in HMLE-TWIST. GAPDH was used as a loading control. D) (First)Morphological evidence and (second) Fluorescence activated sorting analysis (FACS) of CD44 and CD24 staining in DMSO, 4-OHT, CAY10603 and 4-OHT+CAY10603 treated cells. Numbers within graph represent percentages of gated cells indicating CD44highCD24low (above) and CD44lowCD24high cells (below). E) Representative bright-field images and quantification of DMSO,4-OHT, CAY,4-OHT+CAY treated cells as shown by of scratch wound migration assay before and after 6 h of scratch in presence or absence of 4-OHT-induced EMT. […]

MCF7-SLUG+SOX9 cells = test: MCF7-SLUG+SOX9 orthotopic xenograft, EMT-dependent lung metastasis; assay type: in vivo, NSG mice
Excerpt: FIG. 3: Identification of inhibitors of epithelial-mesenchymal transition from high-throughput screening of bioactive lipid library with the screening platform. A) Dual-glo Luciferase assay of HMLE-ZEB1 screened with bioactive lipid library. Data are represented as ratio of mean Firefly luciferase (FF) and Renilla luciferase (Ren) readings, n=3. Hits are circled in red. B) Average Z-score of Dual-glo Luciferase assay in HMLE-ZEB1 cells screened with bioactive lipid library; n=4. Compounds shown in red indicates top hits. C) Protein expression of EMT markers E-cadherin, Fibronectin Vimentin and Snail in DMSO and 4-OHT induced cells treated with and without Cay10603 (10 nM) in HMLE-TWIST. GAPDH was used as a loading control. D) (First)Morphological evidence and (second) Fluorescence activated sorting analysis (FACS) of CD44 and CD24 staining in DMSO, 4-OHT, CAY10603 and 4-OHT+CAY10603 treated cells. Numbers within graph represent percentages of gated cells indicating CD44highCD24low (above) and CD44lowCD24high cells (below). E) Representative bright-field images and quantification of DMSO,4-OHT, CAY,4-OHT+CAY treated cells as shown by of scratch wound migration assay before and after 6 h of scratch in presence or absence of 4-OHT-induced EMT. Images were taken at 4× magnification. Scale bar represents 100 μm. F) (First) Representative images of whole-mount fluorescence lung image and (Second) histology of lung sections. Scale bar represents 100 μm. (Third)Tumors were stained for HDAC6 and counterstained with hematoxylin. Scale bar represents 100 μm. (Fourth) Primary tumors were also stained for E-cadherin, Fibronectin and DAPI. Scale bar represents 50 μm. n=4 mice for each group. G) Total number of metastasis as counted from whole mount of lung with −Dox, +Dox and ACY-1215+Dox treatment. n=3-4 for each group. **P<0.01 as determined by as determined by one-way ANOVA with Dunnet's multiple comparison test. All data are presented as mean+/−SEM. *P<0.05, **P<0.01, ***P<0.001 and ****P<0.0001, not significant (ns) as determined by unpaired two-tailed t-test unless otherwise stated.
FIG. 4. Disruption of microtubule depolymerization through HDAC6 inhibition and GSK3β inhibition restricts EMT. A) Top, Phase-contrast images of morphological changes in DMSO and 4-OHT induced cells treated with Ken, ACY-1215 and combination of both in HMLE-TWIST. Arrows represent cells growing as epithelial clusters. Scale represents 100 μm. Second, Immunofluorescence staining of acetylated α-tubulin in DMSO, Ken+ACY-1215, 4-OHT, ACY-1215+4-OHT, Ken+4-OHT and Ken+ACY-1215+4-OHT treated cells. Scale represents 50 μm. (Third) Fluorescence activated sorting analysis (FACS) of CD44 and CD24 staining in DMSO, Ken+ACY-1215, 4-OHT, ACY-1215+4-OHT, Ken+4-OHT and Ken+ACY-1215+4-OHT treated cells. […] C) Quantification of protein expression for DMSO, Ken+ACY, 4-OHT, ACY+4-OHT, Ken+4-OHT and Ken+ACY+4-OHT treated HMLE-TWIST cells (n=3). […] E) Quantification of percentage area closure in DMSO, Ken+ACY-1215, 4-OHT, ACY-1215+4-OHT, Ken+4-OHT and Ken+ACY-1215+4-OHT treated HMLE-TWIST cells. Graph represents mean+/−SEM of n=4. *P<0.05 and **P<0.01 as determined by unpaired t-test (two-tailed) by Welch's correction. F) Total number of metastasis as counted from whole mount of lung in mice implanted with shControl and shGSK3β cells treated with ACY-1215 in presence or absence of Dox treatment (n=3-4). […]

HMLE-ZEB1 cells = test: Validation of ZEB1-induced EMT inhibition (morphology); assay type: cell-based; conditions: Dox-induced HMLE-ZEB1, Kenpaullone 0.25 μM
Excerpt: A) Dual-Glo luciferase assay to test gene promoters that include CD44, CD166, CDH1 and SERPINE1 in Dox-induced HMLE-ZEB1 cells. Data are represented as ratio of mean Firefly luciferase (FF) and Renilla luciferase (Ren) readings; n=3. B) Dual-glo Luciferase assay of HMLE-ZEB1 screened with LOPAC library. Data are represented as ratio of mean Firefly luciferase (FF) and Renilla luciferase (Ren) readings, n=3. Hits are circled in red. C) Average Z-score of Dual-glo Luciferase assay in HMLE-ZEB1 cells screened with LOPAC library; n=4. D) Validation of screening hits by Dual-glo Luciferase assay in HMLE-ZEB1 screened with LOPAC library by primary and secondary screens. […] Bottom, Fluorescence activated sorting analysis (FACS) of CD44 and CD24 staining in Dox induced HMLE-ZEB1 cells in presence or absence of Ken. […] Top, Representative fluorescence images of whole-mount of lung and second, histology of lung sections. […] I) Total number of metastasis as counted from whole mount of lung in mice implanted with in shControl and shGSK3β cells. n=3-5 for each group. **P<0.01 and ***P<0.001 as determined by as determined by one-way ANOVA with Dunnet's multiple comparison test. All data are presented as mean+/−SEM. *P<0.05, **P<0.01, ***P<0.001 and ****P<0.0001, not significant (ns) as determined by unpaired two-tailed t-test unless otherwise stated. […]

HMLE-TWIST cells [2] = test: TWIST (4-OHT)-induced EMT: markers, morphology, CD44/CD24 FACS, acetylated tubulin; assay type: cell-based; conditions: 4-OHT induced HMLE-TWIST
Excerpt: (§1) FIG. 3: Identification of inhibitors of epithelial-mesenchymal transition from high-throughput screening of bioactive lipid library with the screening platform. A) Dual-glo Luciferase assay of HMLE-ZEB1 screened with bioactive lipid library. Data are represented as ratio of mean Firefly luciferase (FF) and Renilla luciferase (Ren) readings, n=3. Hits are circled in red. B) Average Z-score of Dual-glo Luciferase assay in HMLE-ZEB1 cells screened with bioactive lipid library; n=4. Compounds shown in red indicates top hits. C) Protein expression of EMT markers E-cadherin, Fibronectin Vimentin and Snail in DMSO and 4-OHT induced cells treated with and without Cay10603 (10 nM) in HMLE-TWIST. […] D) (First)Morphological evidence and (second) Fluorescence activated sorting analysis (FACS) of CD44 and CD24 staining in DMSO, 4-OHT, CAY10603 and 4-OHT+CAY10603 treated cells. […] E) Representative bright-field images and quantification of DMSO,4-OHT, CAY,4-OHT+CAY treated cells as shown by of scratch wound migration assay before and after 6 h of scratch in presence or absence of 4-OHT-induced EMT. […] F) (First) Representative images of whole-mount fluorescence lung image and (Second) histology of lung sections. […] All data are presented as mean+/−SEM. *P<0.05, **P<0.01, ***P<0.001 and ****P<0.0001, not significant (ns) as determined by unpaired two-tailed t-test unless otherwise stated. […]

HMLE-TWIST cells [3] = test: Scratch wound migration assay in 4-OHT-induced EMT; assay type: cell-based; conditions: 6 h after scratch
Excerpt: as §1

Row | SMILES | DMSO normalized FF/RL(DMSO = 1) [1] | other results
1 | O=c1c2ccccc2nc2n1CCc1c-2[nH]c2ccccc12 [Rutaecarpine] | 0.5597 | 
2 | CCCCCCCCCCCCCCCCCCOC[C@H](COP(=O)([O-])OCC[N+](C)(C)C)OC [2-O-methyl PAF C-18] | 0.35 | 
3 | CCc1ccc(/C=C2/SC(=S)NC2=O)cc1 [10058-F4] | 0.5631 | 
4 | COc1cccc(-c2cc(=O)c3ccccc3o2)c1N [PD 98,059] | 0.4592 | 
5 | O=C(CCCCCCNC(=O)c1cnc(N(c2ccccc2)c2ccccc2)nc1)NO [ACY-1215, ricolinostat] |  | lung metastatic lesions (MCF7-SLUG+SOX9 cells; ACY-1215 50 mg/kg i.p. + Dox vs Dox-fed mice, 10 weeks after doxycycline): significantly reduced lung metastatic lesions; metastatic lesions in the lungs, shControl group (MCF7-SLUG+SOX9 cells; shControl cells, Dox induction, ACY-1215 treatment): reduced; metastatic lesions in the lungs, shGSK3β group (MCF7-SLUG+SOX9 cells; shGSK3β cells, ACY-1215 treatment, compared to Dox-fed shControl mice): reduced metastatic lesions most dramatically; tumor burden (MCF7-SLUG+SOX9 cells; shGSK3β group treated with ACY-1215 vs Dox-fed shControl): non-significant changes in tumor burden; EMT activation in primary tumors (higher HDAC6 and Fibronectin, low E-Cadherin) (MCF7-SLUG+SOX9 cells; tumors of ACY-1215+Dox mice vs Dox-fed mice): strikingly absent
6 | O=c1cc(-c2ccc(O)cc2)oc2cc(O)cc(O)c12 [Apigenin] | 0.5787 | 
7 | O=C1Cc2c([nH]c3ccc(Br)cc23)-c2ccccc2N1 [Kenpaullone] | 0.8715 | inhibition of ZEB1-induced EMT (retention of epithelial morphology) (HMLE-ZEB1 cells): able to inhibit ZEB1-induced EMT
8 | Cc1cc(O)c2c(c1)C(=O)c1cc(O)cc(O)c1C2=O [Emodin] | 0.6268 | 
9 | CC(C)(C)OC(=O)Nc1ccc(-c2cc(C(=O)NCCCCCCC(=O)NO)no2)cc1 [CAY 10603] | 0.33 | epithelial morphology and CD44 expression (FACS) (HMLE-TWIST cells [2]): retained epithelial morphology along with the block in gain of CD44 expression to some extent; inhibition of TWIST-driven EMT (retention of E-cadherin, no gain of mesenchymal markers) (HMLE-TWIST cells [2]; Cay10603 10 nM, protein expression): able to inhibit EMT; acquisition of migration ability, wound-healing assay (HMLE-TWIST cells [3]): blocked the acquisition of migration ability
10 | COc1ccc(/C=C/C(=O)Nc2ccccc2C(=O)O)cc1OC [Tranilast] | 0.4527 | 
11 | Oc1cc(O)cc(/C=C/c2ccc(O)c(O)c2)c1 [Piceatannol] | 0.6253 | 
12 | Cc1ccc(C(=O)Cn2c3c(sc2=N)CCCC3)cc1 [Pifithrin-α] | 0.348 | 
13 | Nc1ccc(-c2ccc3ccccc3n2)cc1 [BF-170 hydrochloride] | 0.5174 | 

— patent US20260108514A1, “METHOD OF INHIBITING EPITHELIAL-MESENCHYMAL TRANSITION AND CANCER METASTASIS” (Agency for Science, Technology and Research, priority 2022, published 2026)
